Assay results published in the kinase profiling compilation of Christmann-Franck et al. (2016).

What was measured:
Assay in all cases: KINOMEscan competition binding
Conditions in all cases: compound 10.0 µM
DCLK1 (human) = DCLK1 (human) (UniProt O15075)
PAK3 (human) = PAK3 (human) (UniProt O75914)
[1] = target: JAK1 JH1 catalytic (human) (UniProt P23458)
ULK3 (human) = ULK3 (human) (UniProt Q6PHR2)
FGFR4 (human) = FGFR4 (human) (UniProt P22455)
INSRR (human) = INSRR (human) (UniProt P14616)
ABL2 (human) = ABL2 (human) (UniProt P42684)
MST4 (human) = MST4 (human) (UniProt Q9P289)
SLK (human) = SLK (human) (UniProt Q9H2G2)
ROCK2 (human) = ROCK2 (human) (UniProt O75116)
MAPK12 (human) = MAPK12 (human) (UniProt P53778)
KDR (human) = KDR (human) (UniProt P35968)
PAK1 (human) = PAK1 (human) (UniProt Q13153)
RPS6KA3 KD1 (human) = RPS6KA3 KD1 (human) (UniProt P51812)
NEK1 (human) = NEK1 (human) (UniProt Q96PY6)
FGFR3 (human) = FGFR3 (human) (UniProt P22607)
EPHA6 (human) = EPHA6 (human) (UniProt Q9UF33)
EPHA8 (human) = EPHA8 (human) (UniProt P29322)
MAPK4 (human) = MAPK4 (human) (UniProt P31152)
PRKCD (human) = PRKCD (human) (UniProt Q05655)
NUAK2 (human) = NUAK2 (human) (UniProt Q9H093)
SIK1 (human) = SIK1 (human) (UniProt P57059)
PRKACA (human) = PRKACA (human) (UniProt P17612)
PRKAA2 (human) = PRKAA2 (human) (UniProt P54646)
YES1 (human) = YES1 (human) (UniProt P07947)
CDK11A (human) = CDK11A (human) (UniProt Q9UQ88)
ANKK1 (human) = ANKK1 (human) (UniProt Q8NFD2)
MLTK (human) = MLTK (human) (UniProt Q9NYL2)
NEK9 (human) = NEK9 (human) (UniProt Q8TD19)
MET (human) = MET (human) (UniProt P08581)
MAP3K12 (human) = MAP3K12 (human) (UniProt Q12852)
CDC2L2 (human) = CDC2L2 (human) (UniProt Q9UQ88)
MAPK3 (human) = MAPK3 (human) (UniProt P27361)
[2] = system: RET (human), P07949 [M918T]
PDGFRA (human) = PDGFRA (human) (UniProt P16234)
TNK2 (human) = TNK2 (human) (UniProt Q07912)
PLK3 (human) = PLK3 (human) (UniProt Q9H4B4)
GSK3B (human) = GSK3B (human) (UniProt P49841)
EIF2AK2 (human) = EIF2AK2 (human) (UniProt P19525)
ADCK3 (human) = ADCK3 (human) (UniProt Q8NI60)
LYN (human) = LYN (human) (UniProt P07948)
CSF1R (human) = CSF1R (human) (UniProt P07333)

Sequence of MLTK (human) (Q9NYL2 whole entry, looked up): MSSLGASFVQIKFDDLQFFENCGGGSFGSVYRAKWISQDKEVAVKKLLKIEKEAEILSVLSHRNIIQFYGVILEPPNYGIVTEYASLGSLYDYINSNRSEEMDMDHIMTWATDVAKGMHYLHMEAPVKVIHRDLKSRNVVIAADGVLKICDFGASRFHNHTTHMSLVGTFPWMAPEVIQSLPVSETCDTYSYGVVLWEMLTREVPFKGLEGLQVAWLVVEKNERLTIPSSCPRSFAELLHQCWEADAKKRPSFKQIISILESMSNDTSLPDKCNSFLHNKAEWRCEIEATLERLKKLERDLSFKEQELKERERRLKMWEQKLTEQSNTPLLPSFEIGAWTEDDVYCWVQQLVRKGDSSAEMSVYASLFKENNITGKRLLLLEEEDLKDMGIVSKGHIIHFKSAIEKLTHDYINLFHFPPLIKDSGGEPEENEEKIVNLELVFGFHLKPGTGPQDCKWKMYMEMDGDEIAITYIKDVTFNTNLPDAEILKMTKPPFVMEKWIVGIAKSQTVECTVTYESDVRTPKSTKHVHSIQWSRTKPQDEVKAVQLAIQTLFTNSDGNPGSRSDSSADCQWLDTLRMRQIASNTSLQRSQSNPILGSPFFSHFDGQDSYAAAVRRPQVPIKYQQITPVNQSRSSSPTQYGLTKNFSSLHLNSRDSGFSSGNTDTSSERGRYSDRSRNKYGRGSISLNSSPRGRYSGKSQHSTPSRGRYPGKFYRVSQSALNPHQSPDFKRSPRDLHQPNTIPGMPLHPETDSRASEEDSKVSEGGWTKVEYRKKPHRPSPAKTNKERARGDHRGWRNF
Sequence of FGFR3 (human) (P22607 whole entry, looked up): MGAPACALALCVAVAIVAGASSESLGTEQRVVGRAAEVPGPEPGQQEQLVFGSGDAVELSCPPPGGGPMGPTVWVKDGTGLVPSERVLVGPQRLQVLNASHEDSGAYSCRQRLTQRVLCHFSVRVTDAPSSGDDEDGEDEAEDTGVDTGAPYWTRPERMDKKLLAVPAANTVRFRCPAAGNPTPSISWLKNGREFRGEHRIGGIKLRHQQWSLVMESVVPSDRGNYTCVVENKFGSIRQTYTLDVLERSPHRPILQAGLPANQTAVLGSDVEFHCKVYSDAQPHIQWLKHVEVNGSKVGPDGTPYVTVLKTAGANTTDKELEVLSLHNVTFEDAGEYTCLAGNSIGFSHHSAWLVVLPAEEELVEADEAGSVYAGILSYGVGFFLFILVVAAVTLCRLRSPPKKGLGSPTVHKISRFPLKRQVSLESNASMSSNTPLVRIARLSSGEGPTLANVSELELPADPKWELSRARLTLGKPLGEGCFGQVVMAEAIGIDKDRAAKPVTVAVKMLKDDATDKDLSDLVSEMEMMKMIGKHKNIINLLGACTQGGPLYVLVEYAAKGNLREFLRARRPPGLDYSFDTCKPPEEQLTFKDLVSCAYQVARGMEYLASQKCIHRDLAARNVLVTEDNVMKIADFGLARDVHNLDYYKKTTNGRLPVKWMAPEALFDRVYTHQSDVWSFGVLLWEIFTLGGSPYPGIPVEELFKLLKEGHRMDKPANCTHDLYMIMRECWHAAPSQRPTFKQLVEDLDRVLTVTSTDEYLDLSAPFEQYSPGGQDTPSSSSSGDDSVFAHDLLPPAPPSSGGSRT
Sequence of NEK9 (human) (Q8TD19 whole entry, looked up): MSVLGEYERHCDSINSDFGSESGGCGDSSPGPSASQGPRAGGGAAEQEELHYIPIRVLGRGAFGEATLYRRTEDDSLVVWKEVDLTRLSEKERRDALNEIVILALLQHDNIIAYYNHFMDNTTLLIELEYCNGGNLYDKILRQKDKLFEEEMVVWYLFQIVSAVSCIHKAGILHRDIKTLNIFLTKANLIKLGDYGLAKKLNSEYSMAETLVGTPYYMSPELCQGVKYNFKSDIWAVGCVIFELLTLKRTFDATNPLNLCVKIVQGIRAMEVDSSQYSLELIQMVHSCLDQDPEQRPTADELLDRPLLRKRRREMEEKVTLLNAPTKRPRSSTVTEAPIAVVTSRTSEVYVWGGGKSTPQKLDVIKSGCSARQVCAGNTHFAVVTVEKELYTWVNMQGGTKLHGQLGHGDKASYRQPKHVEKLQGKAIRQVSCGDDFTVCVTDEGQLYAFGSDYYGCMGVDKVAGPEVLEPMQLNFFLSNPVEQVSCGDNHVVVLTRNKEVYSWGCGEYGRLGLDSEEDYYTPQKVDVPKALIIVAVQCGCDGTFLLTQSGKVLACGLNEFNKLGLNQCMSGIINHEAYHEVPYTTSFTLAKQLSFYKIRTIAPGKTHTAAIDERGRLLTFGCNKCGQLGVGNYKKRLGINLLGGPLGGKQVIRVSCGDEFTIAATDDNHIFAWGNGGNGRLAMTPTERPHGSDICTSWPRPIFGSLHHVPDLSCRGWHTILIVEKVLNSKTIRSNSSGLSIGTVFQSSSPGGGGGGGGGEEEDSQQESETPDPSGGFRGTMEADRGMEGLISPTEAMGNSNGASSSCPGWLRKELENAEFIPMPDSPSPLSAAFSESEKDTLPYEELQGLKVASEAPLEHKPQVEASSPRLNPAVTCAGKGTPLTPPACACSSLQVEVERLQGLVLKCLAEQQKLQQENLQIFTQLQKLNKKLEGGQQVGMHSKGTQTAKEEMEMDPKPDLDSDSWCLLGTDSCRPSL
Sequence of PAK3 (human) (O75914 whole entry, looked up): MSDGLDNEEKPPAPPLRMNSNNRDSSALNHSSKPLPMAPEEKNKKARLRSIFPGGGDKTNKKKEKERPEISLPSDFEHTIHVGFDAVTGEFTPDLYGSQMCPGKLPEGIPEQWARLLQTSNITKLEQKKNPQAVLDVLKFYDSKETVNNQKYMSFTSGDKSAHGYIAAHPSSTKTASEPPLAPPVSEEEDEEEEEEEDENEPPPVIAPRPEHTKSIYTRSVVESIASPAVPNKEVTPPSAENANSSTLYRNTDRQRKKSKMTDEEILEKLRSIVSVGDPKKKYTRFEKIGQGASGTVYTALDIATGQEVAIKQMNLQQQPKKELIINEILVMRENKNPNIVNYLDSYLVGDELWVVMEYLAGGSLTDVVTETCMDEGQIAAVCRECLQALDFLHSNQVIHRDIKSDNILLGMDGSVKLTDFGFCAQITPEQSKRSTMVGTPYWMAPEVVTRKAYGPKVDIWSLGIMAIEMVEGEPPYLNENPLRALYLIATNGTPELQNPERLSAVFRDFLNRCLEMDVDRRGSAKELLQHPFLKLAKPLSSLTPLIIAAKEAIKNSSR
Sequence of CDC2L2 (human) (Q9UQ88 whole entry, looked up): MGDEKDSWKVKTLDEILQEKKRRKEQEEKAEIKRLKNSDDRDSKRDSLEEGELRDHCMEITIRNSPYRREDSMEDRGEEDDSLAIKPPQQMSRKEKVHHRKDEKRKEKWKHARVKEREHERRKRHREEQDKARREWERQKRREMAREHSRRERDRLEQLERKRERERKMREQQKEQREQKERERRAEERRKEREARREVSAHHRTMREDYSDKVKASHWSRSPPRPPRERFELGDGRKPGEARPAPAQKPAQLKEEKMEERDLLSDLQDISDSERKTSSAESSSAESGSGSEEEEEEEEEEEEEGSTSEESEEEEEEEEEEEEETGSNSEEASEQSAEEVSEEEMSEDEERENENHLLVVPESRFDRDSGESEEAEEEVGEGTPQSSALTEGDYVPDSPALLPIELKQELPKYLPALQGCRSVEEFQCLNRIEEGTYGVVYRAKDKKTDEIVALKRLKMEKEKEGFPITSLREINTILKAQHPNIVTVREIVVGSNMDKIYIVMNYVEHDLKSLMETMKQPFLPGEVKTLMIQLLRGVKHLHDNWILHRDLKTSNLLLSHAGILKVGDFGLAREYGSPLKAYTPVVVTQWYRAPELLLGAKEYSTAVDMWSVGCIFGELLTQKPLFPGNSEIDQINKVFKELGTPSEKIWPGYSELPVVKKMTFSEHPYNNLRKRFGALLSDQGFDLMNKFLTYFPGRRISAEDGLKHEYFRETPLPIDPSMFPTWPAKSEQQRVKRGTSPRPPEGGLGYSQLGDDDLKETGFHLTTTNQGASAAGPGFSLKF
Sequence of CDK11A (human) (Q9UQ88 whole entry, looked up): as above
Sequence of GSK3B (human) (P49841 whole entry, looked up): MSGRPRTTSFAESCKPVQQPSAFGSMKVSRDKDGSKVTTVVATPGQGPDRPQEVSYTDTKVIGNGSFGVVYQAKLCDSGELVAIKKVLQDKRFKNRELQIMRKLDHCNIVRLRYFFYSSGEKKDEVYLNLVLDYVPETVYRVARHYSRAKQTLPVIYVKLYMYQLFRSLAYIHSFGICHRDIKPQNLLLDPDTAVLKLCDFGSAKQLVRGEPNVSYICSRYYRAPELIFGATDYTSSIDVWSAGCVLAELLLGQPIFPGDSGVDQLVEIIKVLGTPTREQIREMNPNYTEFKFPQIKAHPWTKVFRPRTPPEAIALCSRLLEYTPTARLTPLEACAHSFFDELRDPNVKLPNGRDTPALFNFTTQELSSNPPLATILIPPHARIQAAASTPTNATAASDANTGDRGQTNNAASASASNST
Sequence of PRKCD (human) (Q05655 whole entry, looked up): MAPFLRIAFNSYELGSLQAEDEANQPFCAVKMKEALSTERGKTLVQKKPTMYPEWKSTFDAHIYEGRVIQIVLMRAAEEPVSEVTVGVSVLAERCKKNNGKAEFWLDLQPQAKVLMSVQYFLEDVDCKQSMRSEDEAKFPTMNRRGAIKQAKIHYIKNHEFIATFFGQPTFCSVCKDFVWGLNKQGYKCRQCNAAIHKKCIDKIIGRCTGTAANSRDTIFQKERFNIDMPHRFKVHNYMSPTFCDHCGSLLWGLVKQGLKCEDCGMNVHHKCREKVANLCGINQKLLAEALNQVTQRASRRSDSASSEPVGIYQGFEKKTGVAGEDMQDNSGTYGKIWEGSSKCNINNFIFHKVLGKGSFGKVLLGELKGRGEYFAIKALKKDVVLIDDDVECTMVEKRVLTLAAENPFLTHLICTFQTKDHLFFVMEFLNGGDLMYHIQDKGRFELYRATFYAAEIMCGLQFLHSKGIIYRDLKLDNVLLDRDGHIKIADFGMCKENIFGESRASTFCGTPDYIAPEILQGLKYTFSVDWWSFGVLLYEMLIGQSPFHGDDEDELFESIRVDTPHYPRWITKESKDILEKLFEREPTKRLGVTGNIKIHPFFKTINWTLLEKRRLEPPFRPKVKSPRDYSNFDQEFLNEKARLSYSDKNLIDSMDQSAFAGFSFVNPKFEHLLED

`CN1CCN(c2ccc(C(=O)Nc3ncc4c(n3)N(C)c3ccccc3C(=O)N4C)cc2)CC1` showed a kinase still bound, per cent of control (DCLK1 (human)) of 24%, a kinase still bound, per cent of control (PAK3 (human)) of 79% and a kinase still bound, per cent of control [1] of 100%. For the same molecule, the kinase still bound, per cent of control (ULK3 (human)) was 100%, the kinase still bound, per cent of control (FGFR4 (human)) was 100% and the kinase still bound, per cent of control (INSRR (human)) was 100%. For the same molecule, the kinase still bound, per cent of control (ABL2 (human)) was 100%, the kinase still bound, per cent of control (MST4 (human)) was 100% and the kinase still bound, per cent of control (SLK (human)) was 100%. For the same molecule, the kinase still bound, per cent of control (ROCK2 (human)) was 100%, the kinase still bound, per cent of control (MAPK12 (human)) was 98% and the kinase still bound, per cent of control (KDR (human)) was 86%. It also gave a kinase still bound, per cent of control (PAK1 (human)) of 99%, a kinase still bound, per cent of control (RPS6KA3 KD1 (human)) of 100% and a kinase still bound, per cent of control (NEK1 (human)) of 100%. The kinase still bound, per cent of control (FGFR3 (human)) was 100%, the kinase still bound, per cent of control (EPHA6 (human)) was 100% and the kinase still bound, per cent of control (EPHA8 (human)) was 92%. It also gave a kinase still bound, per cent of control (MAPK4 (human)) of 100%, a kinase still bound, per cent of control (PRKCD (human)) of 100% and a kinase still bound, per cent of control (NUAK2 (human)) of 100%. For the same molecule, the kinase still bound, per cent of control (SIK1 (human)) was 100%, the kinase still bound, per cent of control (PRKACA (human)) was 100% and the kinase still bound, per cent of control (PRKAA2 (human)) was 100%. It also gave a kinase still bound, per cent of control (YES1 (human)) of 96%, a kinase still bound, per cent of control (CDK11A (human)) of 100% and a kinase still bound, per cent of control (ANKK1 (human)) of 28%. For the same molecule, the kinase still bound, per cent of control (MLTK (human)) was 100%, the kinase still bound, per cent of control (NEK9 (human)) was 100% and the kinase still bound, per cent of control (MET (human)) was 100%. For the same molecule, the kinase still bound, per cent of control (MAP3K12 (human)) was 87%, the kinase still bound, per cent of control (CDC2L2 (human)) was 100% and the kinase still bound, per cent of control (MAPK3 (human)) was 100%. The kinase still bound, per cent of control [2] was 98%, the kinase still bound, per cent of control (PDGFRA (human)) was 100% and the kinase still bound, per cent of control (TNK2 (human)) was 92%. The kinase still bound, per cent of control (PLK3 (human)) was 100%, the kinase still bound, per cent of control (GSK3B (human)) was 79% and the kinase still bound, per cent of control (EIF2AK2 (human)) was 100%. The kinase still bound, per cent of control (ADCK3 (human)) was 100%, the kinase still bound, per cent of control (LYN (human)) was 94% and the kinase still bound, per cent of control (CSF1R (human)) was 71%.

`COc1cc(N2CCN(C)CC2)ccc1Nc1ncc2c(n1)N(C)c1sccc1C(=O)N2C` gave a kinase still bound, per cent of control (DCLK1 (human)) of 1.4%, a kinase still bound, per cent of control (PAK3 (human)) of 100% and a kinase still bound, per cent of control [1] of 100%. The kinase still bound, per cent of control (ULK3 (human)) was 100%, the kinase still bound, per cent of control (FGFR4 (human)) was 40% and the kinase still bound, per cent of control (INSRR (human)) was 96%. The kinase still bound, per cent of control (ABL2 (human)) was 92%, the kinase still bound, per cent of control (MST4 (human)) was 70% and the kinase still bound, per cent of control (SLK (human)) was 87%. For the same molecule, the kinase still bound, per cent of control (ROCK2 (human)) was 57%, the kinase still bound, per cent of control (MAPK12 (human)) was 76% and the kinase still bound, per cent of control (KDR (human)) was 90%. The kinase still bound, per cent of control (PAK1 (human)) was 81%, the kinase still bound, per cent of control (RPS6KA3 KD1 (human)) was 99% and the kinase still bound, per cent of control (NEK1 (human)) was 77%. For the same molecule, the kinase still bound, per cent of control (FGFR3 (human)) was 100%, the kinase still bound, per cent of control (EPHA6 (human)) was 97% and the kinase still bound, per cent of control (EPHA8 (human)) was 89%. It also gave a kinase still bound, per cent of control (MAPK4 (human)) of 66%, a kinase still bound, per cent of control (PRKCD (human)) of 100% and a kinase still bound, per cent of control (NUAK2 (human)) of 8%. The kinase still bound, per cent of control (SIK1 (human)) was 81%, the kinase still bound, per cent of control (PRKACA (human)) was 97% and the kinase still bound, per cent of control (PRKAA2 (human)) was 94%. For the same molecule, the kinase still bound, per cent of control (YES1 (human)) was 87%, the kinase still bound, per cent of control (CDK11A (human)) was 95% and the kinase still bound, per cent of control (ANKK1 (human)) was 25%. The kinase still bound, per cent of control (MLTK (human)) was 97%, the kinase still bound, per cent of control (NEK9 (human)) was 94% and the kinase still bound, per cent of control (MET (human)) was 96%. For the same molecule, the kinase still bound, per cent of control (MAP3K12 (human)) was 86%, the kinase still bound, per cent of control (CDC2L2 (human)) was 100% and the kinase still bound, per cent of control (MAPK3 (human)) was 95%. The kinase still bound, per cent of control [2] was 96%, the kinase still bound, per cent of control (PDGFRA (human)) was 87% and the kinase still bound, per cent of control (TNK2 (human)) was 25%. It also gave a kinase still bound, per cent of control (PLK3 (human)) of 22%, a kinase still bound, per cent of control (GSK3B (human)) of 97% and a kinase still bound, per cent of control (EIF2AK2 (human)) of 69%. For the same molecule, the kinase still bound, per cent of control (ADCK3 (human)) was 100%, the kinase still bound, per cent of control (LYN (human)) was 100% and the kinase still bound, per cent of control (CSF1R (human)) was 54%.
